According to ChEMBL document CHEMBL3885881, “DrugMatrix”:

Species on record: Rattus norvegicus
Experiment: DrugMatrix - Regimen: Daily Repeat
Assay type: toxicity, organism-based, Sprague-Dawley
Design: regimen Daily Repeat, gender Male, age 6-8 weeks
Settings: in vivo, po, route oral GAVAGE, […]; for ABSOLUTE BASOPHIL / ABSOLUTE EOSINOPHIL / ABSOLUTE LYMPHOCYTE / ABSOLUTE MONOCYTE / ABSOLUTE SEGMENTED NEUTROPHIL / BASOPHIL / EOSINOPHIL / ERYTHROCYTE COUNT / HEMATOCRIT / HEMOGLOBIN / LEUKOCYTE COUNT / LYMPHOCYTE / MEAN CORPUSCULAR HEMOGLOBIN / MEAN CORPUSCULAR HEMOGLOBIN CONCENTRATION / MEAN CORPUSCULAR VOLUME / MONOCYTE / NEUTROPHIL / NUCLEATED RED BLOOD CELLS / PLATELET COUNT: tissue Blood; for ALANINE AMINOTRANSFERASE / ALBUMIN / ALKALINE PHOSPHATASE / ASPARTATE AMINOTRANSFERASE / BLOOD UREA NITROGEN / CARBON DIOXIDE / CHLORIDE / CHOLESTEROL / CREATINE PHOSPHOKINASE / CREATININE / GLUCOSE / LACTATE DEHYDROGENASE / LIPASE / PHOSPHORUS / SODIUM / TOTAL BILIRUBIN / TOTAL PROTEIN / URIC ACID: tissue Plasma
[1] = 0 mg/kg, 72 h, dose level Control, time 3 day
[2] = 0 mg/kg, 120 h, dose level Control, time 5 day
[3] = 450 mg/kg, 72 h, dose level Low, time 3 day

CC[C@H](C)C(=O)O[C@H]1C[C@@H](C)C=C2C=C[C@H](C)[C@H](CC[C@@H]3C[C@@H](O)CC(=O)O3)[C@H]21 [LOVASTATIN]
ABSOLUTE BASOPHIL [1]: 0 CELLS/uL
ABSOLUTE EOSINOPHIL [1]: 52.33 CELLS/uL
ABSOLUTE LYMPHOCYTE [1]: 9105.33 CELLS/uL
ABSOLUTE MONOCYTE [1]: 155.67 CELLS/uL
ABSOLUTE SEGMENTED NEUTROPHIL [1]: 1020 CELLS/uL
BASOPHIL [1]: 0%
EOSINOPHIL [1]: 0.33%
ERYTHROCYTE COUNT [1]: 5.03 x10E6/uL
HEMATOCRIT [1]: 31.63%
HEMOGLOBIN [1]: 12.37 G/DL
LEUKOCYTE COUNT [1]: 10.33 x10E3/uL
LYMPHOCYTE [1]: 87%
MEAN CORPUSCULAR HEMOGLOBIN [1]: 24.57 pg
MEAN CORPUSCULAR HEMOGLOBIN CONCENTRATION [1]: 39.07 G/DL
MEAN CORPUSCULAR VOLUME [1]: 62.93 fL
MONOCYTE [1]: 1.33%
NEUTROPHIL [1]: 11.33%
NUCLEATED RED BLOOD CELLS [1]: 0 /100WBC
PLATELET COUNT [1]: 896 x10E3/uL
ALANINE AMINOTRANSFERASE [1]: 75.33 u/L
ALBUMIN [1]: 3.77 G/DL
ALKALINE PHOSPHATASE [1]: 378.67 u/L
ASPARTATE AMINOTRANSFERASE [1]: 101.33 u/L
BLOOD UREA NITROGEN [1]: 11.33 mg/dL
CARBON DIOXIDE [1]: 25 mmol/L
CHLORIDE [1]: 99 MEQ/L
CHOLESTEROL [1]: 66 mg/dL
CREATINE PHOSPHOKINASE [1]: 277 u/L
CREATININE [1]: 0.33 mg/dL
GLUCOSE [1]: 198.33 mg/dL
LACTATE DEHYDROGENASE [1]: 140.33 u/L
LIPASE [1]: 11.33 u/L
PHOSPHORUS [1]: 11.83 mg/dL
SODIUM [1]: 141.03 MEQ/L
TOTAL BILIRUBIN [1]: 0.2 mg/dL
TOTAL PROTEIN [1]: 5.47 G/DL
URIC ACID [1]: 0.93 mg/dL
ABSOLUTE BASOPHIL [2]: 0 CELLS/uL
ABSOLUTE EOSINOPHIL [2]: 0 CELLS/uL
ABSOLUTE LYMPHOCYTE [2]: 8734 CELLS/uL
ABSOLUTE MONOCYTE [2]: 98.67 CELLS/uL
ABSOLUTE SEGMENTED NEUTROPHIL [2]: 1034 CELLS/uL
BASOPHIL [2]: 0%
EOSINOPHIL [2]: 0%
ERYTHROCYTE COUNT [2]: 5.19 x10E6/uL
HEMATOCRIT [2]: 33.2%
HEMOGLOBIN [2]: 12.93 G/DL
LEUKOCYTE COUNT [2]: 9.87 x10E3/uL
LYMPHOCYTE [2]: 87%
MEAN CORPUSCULAR HEMOGLOBIN [2]: 25 pg
MEAN CORPUSCULAR HEMOGLOBIN CONCENTRATION [2]: 39.03 G/DL
MEAN CORPUSCULAR VOLUME [2]: 63.93 fL
MONOCYTE [2]: 1%
NEUTROPHIL [2]: 12%
NUCLEATED RED BLOOD CELLS [2]: 0 /100WBC
PLATELET COUNT [2]: 1190 x10E3/uL
ALANINE AMINOTRANSFERASE [2]: 75.67 u/L
ALBUMIN [2]: 4 G/DL
ALKALINE PHOSPHATASE [2]: 384.33 u/L
ASPARTATE AMINOTRANSFERASE [2]: 89.67 u/L
BLOOD UREA NITROGEN [2]: 13 mg/dL
CARBON DIOXIDE [2]: 32.67 mmol/L
CHLORIDE [2]: 103 MEQ/L
CHOLESTEROL [2]: 79.67 mg/dL
CREATINE PHOSPHOKINASE [2]: 199.33 u/L
CREATININE [2]: 0.29 mg/dL
GLUCOSE [2]: 161.33 mg/dL
LACTATE DEHYDROGENASE [2]: 92.33 u/L
LIPASE [2]: 11.67 u/L
PHOSPHORUS [2]: 10.8 mg/dL
SODIUM [2]: 145.3 MEQ/L
TOTAL BILIRUBIN [2]: 0.17 mg/dL
TOTAL PROTEIN [2]: 5.7 G/DL
URIC ACID [2]: 0.63 mg/dL
ABSOLUTE BASOPHIL [3]: 0 CELLS/uL
ABSOLUTE EOSINOPHIL [3]: 0 CELLS/uL
ABSOLUTE LYMPHOCYTE [3]: 6372 CELLS/uL
ABSOLUTE MONOCYTE [3]: 86.67 CELLS/uL
ABSOLUTE SEGMENTED NEUTROPHIL [3]: 1174.67 CELLS/uL
BASOPHIL [3]: 0%
EOSINOPHIL [3]: 0%
ERYTHROCYTE COUNT [3]: 5.39 x10E6/uL
HEMATOCRIT [3]: 33.63%
HEMOGLOBIN [3]: 13.47 G/DL
LEUKOCYTE COUNT [3]: 7.63 x10E3/uL
LYMPHOCYTE [3]: 82.67%
MEAN CORPUSCULAR HEMOGLOBIN [3]: 25 pg
MEAN CORPUSCULAR HEMOGLOBIN CONCENTRATION [3]: 40.07 G/DL
MEAN CORPUSCULAR VOLUME [3]: 62.43 fL
MONOCYTE [3]: 1.33%
NEUTROPHIL [3]: 16%
NUCLEATED RED BLOOD CELLS [3]: 0 /100WBC
PLATELET COUNT [3]: 1202.67 x10E3/uL
ALANINE AMINOTRANSFERASE [3]: 138.33 u/L
ALBUMIN [3]: 4.13 G/DL
ALKALINE PHOSPHATASE [3]: 450.67 u/L
ASPARTATE AMINOTRANSFERASE [3]: 224.33 u/L
BLOOD UREA NITROGEN [3]: 11 mg/dL
CARBON DIOXIDE [3]: 27.67 mmol/L
CHLORIDE [3]: 97.33 MEQ/L
CHOLESTEROL [3]: 35 mg/dL
CREATINE PHOSPHOKINASE [3]: 505 u/L
CREATININE [3]: 0.16 mg/dL
GLUCOSE [3]: 146 mg/dL
LACTATE DEHYDROGENASE [3]: 223.33 u/L
LIPASE [3]: 10.67 u/L
PHOSPHORUS [3]: 10.17 mg/dL
SODIUM [3]: 140.53 MEQ/L
TOTAL BILIRUBIN [3]: 0.1 mg/dL
TOTAL PROTEIN [3]: 5.37 G/DL
URIC ACID [3]: 0.5 mg/dL
